This note sets out measurements from US4593090A, “Novel nitrosourea compounds, method for preparing same, and pharmaceutical composition containing same” (Gogo Kimura, priority 1981, dated 1986).

Like-named read-outs stand apart in the source and are kept apart here.

One data set deals with Ehrlich acites carcinoma. Put plainly: Growth-inhibiting effect against Ehrlich acites carcinoma. It counts as in vivo, male mice. Conditions: Mus musculus, Ehrlich, 120 h, 5 days; for response vs control in vivo at 25 mg/kg: 25 mg/kg/day ip; for response vs control in vivo at 100 mg/kg: 100 mg/kg/day ip. In outline: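 Activity graded from T/C% of total packed ascites cell volume on day 7 (treated vs untreated): - 100-66, + 65-41, ++ 40-11, +++ 10-0. Groups of 6 male mice bore 1×10^7 i.p.-implanted cells and received compound (1% Nikkol HCO-60) i.p. daily for 5 days from 24 hrs after implantation.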

The nature of data set [1]: Acute toxicity (LD50, Behrens-Karber method). It counts as in vivo, ICR mice. Conditions: mouse, in vivo, ip, mortality during 30 days. The protocol:
Test compounds, dissolved or suspended in 0.5% aqueous CMC, were each intraperitoneally administered to ICR mice in a dose of 0.1 ml per 10 g body weight. LD50 (mg/kg) value of each test compound was calculated from the mortality of mice during 30 days by the Behrens-Karber method.

In data set [2] the test system is Leukemia L1210. In words: Activity against Leukemia L1210, oral, increase in life span of mice. It counts as in vivo, female mice (BDF1 family). Conditions: for ED (maximum ILS) / ED30: Mus musculus, L1210, oral once a day for 5 successive days; for ED (maximum ILS): daily dosage giving maximum increase of life span, read-out: O.D. (optimum dosage); for ED30: daily dosage increasing average survival days by 30%, read-out: ILS30; for Survivors after 60 days / Max. ILS % / Therapeutic ratio TR: oral; for Survivors after 60 days: 6-membered group; for Max. ILS %: 60-day observation, versus control; for Therapeutic ratio TR: O.D./ILS30. Summed up: (§1)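 Mice (female BDF1, 20–23 g) carrying 1×10^5 ip-implanted L1210 cells were given daily ip or oral doses for 5 days; ILS% came from mean survival over 60 days relative to controls.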

The nature of data set [3]: Diuretic activity, acute sodium loaded mouse screening test. The data set is classed as in vivo, male mice. Conditions: 50 mg/kg oral in 1% saline; for Cl^- / K^+ / Na^+: urine. The protocol: The diuretic activity of the compounds of this invention was assayed by the diuresis screening test referred to as "acute sodium loaded mouse". This test was carried out by the following method.
The acute sodium loaded mouse screening test was carried out by using a 10-membered group of male mice (each weighing 18 to 24 g). Test compounds were incorporated in 1% saline (NaCl) solution and orally administered in a volume of 10 ml/kg. The mice were placed in metabolic cages. Each treated group consisted of 10-members. Five members were placed in one cage. Tests were conducted by oral administrations of (A) 1% saline (NaCl) solution to the control group and (B) 1% saline (NaCl) solution containing a test compound according to this invention.
The determination was carried out for sodium, potassium, and chlorine in each pooled urine sample. The determination of sodium and potassium was carried out by flame photometer. Chlorine was determined by chloride analysis apparatus. The analytical values of sodium, potassium, and chlorine were shown with an average mg equivalent (m Eq)/Kg/5 hours, and the diuretic activity was shown with an average urine volume (ml)/Kg/5 hours.

The test system of data set [4] is Leukemia L1210. Put plainly: Activity against Leukemia L1210, intraperitoneal, increase in life span of mice. The settings on record: for ED (maximum ILS) / ED30: Mus musculus, L1210, ip, ip once a day for 5 successive days; for ED (maximum ILS): daily dosage giving maximum increase of life span, read-out: O.D. (optimum dosage); for ED30: daily dosage increasing average survival days by 30%, read-out: ILS30; for Survivors after 60 days / Max. ILS % / Therapeutic ratio TR: ip; for Survivors after 60 days: 6-membered group; for Max. ILS %: 60-day observation, versus control; for Therapeutic ratio TR: O.D./ILS30. The data set is classed as in vivo, female mice (BDF1 family). Summed up: as §1

Consider `COCCN(C[C@H]1O[C@H](OC2CCCCC2)[C@H](O)[C@@H](O)[C@@H]1O)C(=O)N(CCCl)N=O` [Compound 39, 3-(2-methoxyethyl)-3-(cyclohexyl α-D-glucopyranose-6-yl)-1-(2-chloroethyl)-1-nitrosourea], for which, in the data set with Ehrlich acites carcinoma (read-out: Activity), the response vs control in vivo at 25 mg/kg fell in the range of 0 to 10% and the response vs control in vivo at 100 mg/kg is 0 to 10%. In addition, in the data set with Ehrlich acites carcinoma (read-out: T/C %), the response vs control in vivo at 25 mg/kg was 0% and the response vs control in vivo at 100 mg/kg was 0%. Moreover, the median lethal dose (LD50) at 720 h in data set [1] was found to be 510 mg/kg. Also, in the data set on Leukemia L1210 [2], the ED (maximum ILS) worked out at 220 mg/kg, the ED30 stood at 7.43 mg/kg, the “Survivors after 60 days” value was 5/6 and the “Max. ILS %” value was over 635%. In addition, the “Therapeutic ratio TR” value in the data set on Leukemia L1210 [2] is given as 29.6. In addition, in data set [3], the Urine volume is recorded as 9.2 ml/kg/5 hrs, the “Cl^-” value worked out at 0.7 mEq/kg/5 hrs, the “K^+” value is listed as 0.8 mEq/kg/5 hrs and the “Na^+” value was 0.6 mEq/kg/5 hrs. In the data set with Leukemia L1210 [4], the ED (maximum ILS) was found to be 170 mg/kg, the ED30 came out at 2.47 mg/kg, the “Survivors after 60 days” value is reported as 6/6 and the “Max. ILS %” value was over 700%. For the same compound, the “Therapeutic ratio TR” value in the data set on Leukemia L1210 [4] is listed as 68.8.

As for `COCCN(C[C@H]1O[C@H](OCC(C)C)[C@@H](O)[C@@H](O)[C@@H]1O)C(=O)N(CCCl)N=O` [Compound 135, 3-(2-methoxyethyl)-3-(isobutyl α-D-mannopyranose-6-yl)-1-(2-chloroethyl)-1-nitrosourea], in the data set on Ehrlich acites carcinoma (read-out: Activity), the response vs control in vivo at 25 mg/kg lay in the range of 0 to 10% and the response vs control in vivo at 100 mg/kg lay within 0 to 10%. Moreover, in the data set on Ehrlich acites carcinoma (read-out: T/C %), the response vs control in vivo at 25 mg/kg amounted to 0% and the response vs control in vivo at 100 mg/kg is 0%. This compound showed an LD50 at 720 h in data set [1] of 620 mg/kg. Besides, in the data set on Leukemia L1210 [2], the ED (maximum ILS) was 240 mg/kg, the ED30 is 9.92 mg/kg, the “Survivors after 60 days” value is 6/6 and the “Max. ILS %” value was over 700%. For the same compound, the “Therapeutic ratio TR” value in the data set on Leukemia L1210 [2] worked out at 24.2. Besides, in data set [3], the Urine volume was 9.7 ml/kg/5 hrs, the “Cl^-” value is on record as 0.8 mEq/kg/5 hrs, the “K^+” value was 0.9 mEq/kg/5 hrs and the “Na^+” value was determined as 0.7 mEq/kg/5 hrs. For the same compound, in the data set with Leukemia L1210 [4], the ED (maximum ILS) came out at 200 mg/kg, the ED30 came to 2.92 mg/kg, the “Survivors after 60 days” value was 6/6 and the “Max. ILS %” value is given as over 700%. Moreover, the “Therapeutic ratio TR” value in the data set with Leukemia L1210 [4] was 68.5.

The LD50 is the dose expected to kill half of the subjects tested. Low readings indicate greater toxicity, high ones lower toxicity.
